Laboratory results: Sander's compilation of Henry's law constants (doi:10.1021/je0000266)

Assay: Henry solubility constant Hcp at 298.15 K (mol/(m3 Pa))
Conditions: reference: Bamford et al. (2000)

SMILES | Henry solubility constant Hcp
Clc1ccc(-c2cc(Cl)c(Cl)c(Cl)c2)cc1Cl [3,3',4,4',5-pentachlorobiphenyl] | 0.048
Clc1cc(Cl)c(-c2c(Cl)c(Cl)cc(Cl)c2Cl)c(Cl)c1 [2,2',3,4',5,6,6'-heptachlorobiphenyl] | 0.0088
Clc1cc(Cl)c(-c2cc(Cl)c(Cl)cc2Cl)cc1Cl [2,2',4,4',5,5'-hexachlorobiphenyl] | 0.019
Clc1ccc(Cl)c(-c2cc(Cl)ccc2Cl)c1 [2,2',5,5'-tetrachlorobiphenyl] | 0.032
Clc1cc(Cl)c(-c2cc(Cl)c(Cl)cc2Cl)c(Cl)c1 [2,2',4,4',5,6'-hexachlorobiphenyl] | 0.013
Clc1ccc(-c2ccccc2Cl)cc1 [2,4'-dichlorobiphenyl] | 0.04
Clc1ccc(-c2ccc(Cl)c(Cl)c2Cl)cc1Cl [2,3,3',4,4'-pentachlorobiphenyl] | 0.03
Clc1ccc(Cl)c(-c2cccc(Cl)c2Cl)c1 [2,2',3,5'-tetrachlorobiphenyl] | 0.036
Clc1cc(Cl)c(-c2ccccc2Cl)c(Cl)c1 [2,2',4,6-tetrachlorobiphenyl] | 0.016
Clc1ccc(-c2ccc(Cl)c(Cl)c2)cc1Cl [3,3',4,4'-tetrachlorobiphenyl] | 0.062
Clc1ccccc1-c1ccccc1 [2-chlorobiphenyl] | 0.049
Clc1cc(Cl)c(-c2c(Cl)c(Cl)cc(Cl)c2Cl)cc1Cl [2,2',3,4',5,5',6-heptachlorobiphenyl] | 0.016
Clc1cc(Cl)c(-c2ccc(Cl)c(Cl)c2Cl)cc1Cl [2,2',3,4,4',5'-hexachlorobiphenyl] | 0.022
Clc1ccc(-c2ccc(Cl)c(Cl)c2)c(Cl)c1 [2,3',4,4'-tetrachlorobiphenyl] | 0.027
Clc1ccc(Cl)c(-c2cc(Cl)c(Cl)cc2Cl)c1 [2,2',4,5,5'-pentachlorobiphenyl] | 0.024
Clc1ccc(-c2cc(Cl)c(Cl)cc2Cl)cc1Cl [2,3',4,4',5-pentachlorobiphenyl] | 0.028
Clc1ccc(Cl)c(-c2ccccc2Cl)c1 [2,2',5-trichlorobiphenyl] | 0.039
Clc1cc(Cl)c(-c2c(Cl)c(Cl)cc(Cl)c2Cl)c(Cl)c1Cl [2,2',3,3',4,5',6,6'-octachlorobiphenyl] | 0.01
